Source: patent publication US12544373B2, “Treatment of cancer, inflammatory diseases and autoimmune diseases” (Usher III Initiative, Inc., priority 2020, dated 2026)
pIC50: −log10 of the molar value. Like-named read-outs stand apart in the source and are kept apart here.

Experiments:
Format in all cases: cell-based, human
Details in all cases: for T/C %: 72 h
[1] = test system: CXF HCC-2998; experiment: CellTiter-Blue Cell Viability Assay (Example 2), colon
From the text: (§1) The CellTiter-Blue® Cell Viability Assay was used to assess the viability of cells from various cancer cell lines, in the presence or absence of Compound 85 (at different concentrations). This assay provides a homogeneous, fluorometric method for estimating the number of viable cells present in multi-well plates. Viable cells retain the ability to reduce resazurin to resorufin, which is highly fluorescent. […] The fluorescence produced is proportional to the number of viable cells. There is a linear relationship between cell number and fluorescence.
(§2) Cancer cells (see Table 6) were harvested from exponential phase cultures, counted and plated in 96 well flat-bottom microtiter plates, at a cell density 6,000-20,000 cells/well, depending on the cell line's growth rate. The culture medium was supplemented with 10% (v/v) foetal calf serum and 50 μg/mL gentamicin (140 μL/well). Cultures were incubated at 37° C. and 5% CO2 in a humidified atmosphere.
(§3) Compound 85 was serially diluted in DMSO, and five Compound 85 concentrations in half-log increments were used: 0.03 μM, 0.09 μM, 0.30 μM, 1.0 μM, and 3.0 μM. After 24 h, 10 μL of Compound 85 (dissolved in DMSO) or control (DMSO) medium were added, in duplicates, and left on the cells for another 72 h. Compound 85 solutions were added to the assay plates using a Tecan Freedom EVO 200 robotic platform. The DMSO concentration was kept constant at 0.3% v/v across the assay plate.
(§4) After incubation of up to 72 hours, fluorescence (FU) was measured using the EnSpire® multimode plate reader (Perkin Elmer) (excitation λ=570 nm, emission λ=600 nm).
(§5) Cancer cell lines used: Compound 85's anti-cancer effect was tested in 20 human cancer-cell lines representing nine cancer types (Table 6).
(§6) The percentage of viable cells in the presence of Compound 85 (Test condition, T), at different concentrations, are presented in Table 7 and expressed as a percentage of the number of viable cells in the presence of DMSO without Compound 85 (Control condition, C).
(§7) The relative IC50 is determined as the Compound 85 concentration giving a response halfway between the maximum cell viability signal (i.e., a 100% cell viability, no Compound 85 response) and the minimal viability signal (i.e. maximum cell viability inhibition achieved by Compound 85), in a sigmoidal concentration-effect curve.
(§8) The absolute IC50 is determined as the concentration that is associated with a T/C ratio of 50%.

[2] = test system: CXF LS 174T; experiment: as above
From the text: as §1, §2, §3, §4, §5, §6, §7, §8

[3] = test system: MAXFHER BT-474; experiment: CellTiter-Blue Cell Viability Assay (Example 2), breast
From the text: as §1, §2, §3, §4, §5, §6, §7, §8

[4] = test system: MAXFHER JIMT-1; experiment: as above
From the text: as §1, §2, §3, §4, §5, §6, §7, §8

[5] = test system: MAXFTN MDA-MB-453; experiment: as above
From the text: as §1, §2, §3, §4, §5, §6, §7, §8

[6] = test system: PAXF 1657; experiment: CellTiter-Blue Cell Viability Assay (Example 2), pancreatic
From the text: as §1, §2, §3, §4, §5, §6, §7, §8

[7] = test system: PAXF HUP-T3; experiment: as above
From the text: as §1, §2, §3, §4, §5, §6, §7, §8

[8] = test system: SXFS 1301; experiment: CellTiter-Blue Cell Viability Assay (Example 2), soft tissue sarcoma
From the text: as §1, §2, §3, §4, §5, §6, §7, §8

[9] = test system: SXFS Hs 729; experiment: as above
From the text: as §1, §2, §3, §4, §5, §6, §7, §8

For CC(C)(O)Cn1nc(-c2ccccc2)c2c(Cl)c(-c3ccccc3)nnc21 [Compound 85], the “Absolute IC70” value [1] was 1125 nM, the “Relative IC70” value [1] was 891 nM and the T/C % ([1]; 0.03 μM) was 98%. The T/C % ([1]; 0.095 μM) was 99%, the T/C % ([1]; 0.3 μM) was 98% and the T/C % ([1]; 0.95 μM) was 40%. The T/C % ([1]; 3.0 μM) was 22%, the pIC50 ([1]; read-out: Absolute IC50) was 6.07 and the pIC50 ([1]; read-out: Relative IC50) was 6.12. The “Absolute IC70” value [2] was 474 nM, the “Relative IC70” value [2] was 467 nM and the T/C % ([2]; 0.03 μM) was 96%. It also gave a T/C % ([2]; 0.095 μM) of 96%, a T/C % ([2]; 0.3 μM) of 72% and a T/C % ([2]; 0.95 μM) of 5%. The T/C % ([2]; 3.0 μM) was 3%, the pIC50 ([2]; read-out: Absolute IC50) was 6.42 and the pIC50 ([2]; read-out: Relative IC50) was 6.42. For the same compound, the “Absolute IC70” value [3] was 1316 nM, the “Relative IC70” value [3] was 1010 nM and the T/C % ([3]; 0.3 μM) was 99%. It also gave a T/C % ([3]; 0.95 μM) of 46%, a T/C % ([3]; 3.0 μM) of 17% and a pIC50 ([3]; read-out: Absolute IC50) of 6.05. The pIC50 ([3]; read-out: Relative IC50) was 6.12, the “Absolute IC70” value [4] was 957 nM and the “Relative IC70” value [4] was 844 nM. For the same compound, the T/C % ([4]; 0.03 μM) was 97%, the T/C % ([4]; 0.095 μM) was 97% and the T/C % ([4]; 0.3 μM) was 96%. It also gave a T/C % ([4]; 0.95 μM) of 30%, a T/C % ([4]; 3.0 μM) of 14% and a pIC50 ([4]; read-out: Absolute IC50) of 6.13. For the same compound, the pIC50 ([4]; read-out: Relative IC50) was 6.15, the “Absolute IC70” value [5] was 765 nM and the “Relative IC70” value [5] was 763 nM. The T/C % ([5]; 0.03 μM) was 101%, the T/C % ([5]; 0.095 μM) was 97% and the T/C % ([5]; 0.3 μM) was 101%. The T/C % ([5]; 0.95 μM) was 3%, the T/C % ([5]; 3.0 μM) was 1% and the pIC50 ([5]; read-out: Absolute IC50) was 6.14. The pIC50 ([5]; read-out: Relative IC50) was 6.14, the “Absolute IC70” value [6] was 1166 nM and the “Relative IC70” value [6] was 1169 nM. The T/C % ([6]; 0.03 μM) was 97%, the T/C % ([6]; 0.095 μM) was 94% and the T/C % ([6]; 0.3 μM) was 97%. For the same compound, the T/C % ([6]; 0.95 μM) was 66%, the T/C % ([6]; 3.0 μM) was 1% and the pIC50 ([6]; read-out: Absolute IC50) was 5.98. The pIC50 ([6]; read-out: Relative IC50) was 5.98, the “Absolute IC70” value [7] was 723 nM and the “Relative IC70” value [7] was 602 nM. For the same compound, the T/C % ([7]; 0.03 μM) was 95%, the T/C % ([7]; 0.095 μM) was 102% and the T/C % ([7]; 0.3 μM) was 88%. For the same compound, the T/C % ([7]; 0.95 μM) was 21%, the T/C % ([7]; 3.0 μM) was 16% and the pIC50 ([7]; read-out: Absolute IC50) was 6.27. For the same compound, the pIC50 ([7]; read-out: Relative IC50) was 6.31, the “Absolute IC70” value [8] was 570 nM and the “Relative IC70” value [8] was 558 nM. The T/C % ([8]; 0.03 μM) was 105%, the T/C % ([8]; 0.095 μM) was 106% and the T/C % ([8]; 0.3 μM) was 102%. The T/C % ([8]; 0.95 μM) was 3%, the T/C % ([8]; 3.0 μM) was 2% and the pIC50 ([8]; read-out: Absolute IC50) was 6.30. The pIC50 ([8]; read-out: Relative IC50) was 6.31, the “Absolute IC70” value [9] was 808 nM and the “Relative IC70” value [9] was 789 nM. For the same compound, the T/C % ([9]; 0.03 μM) was 99%, the T/C % ([9]; 0.095 μM) was 99% and the T/C % ([9]; 0.3 μM) was 99%. It also gave a T/C % ([9]; 0.95 μM) of 13%, a T/C % ([9]; 3.0 μM) of 7% and a pIC50 ([9]; read-out: Absolute IC50) of 6.13. For the same compound, the pIC50 ([9]; read-out: Relative IC50) was 6.14.
